{
  "source": "patent US7655392B2",
  "about": "“Quenching methods for red blood cell inactivation process” (priority 2004, dated 2010)",
  "assay": "Co-formulation of PIC-1 with neutralized glutathione in one solution (observation)",
  "assay_type": "physicochemical",
  "details": "PIC-1 and 20 mM glutathione neutralized with NaOH in one solution (Table 2A samples 4-6)",
  "description": "The methods of the invention result in adequate inactivation of possible pathogen contaminants in red blood cell compositions with improved quenching as compared to known methods. […] In some embodiments, the quencher is acidic and is neutralized with 1 to 2 equivalents of a suitable base, such as sodium hydroxide. In a preferred embodiment, the quencher is glutathione neutralized with 2 equivalents of base. In a preferred embodiment, the pathogen inactivating compound comprises an acridine group linked to a mustard group via an ester bond. […] The quencher may be added to the red blood cell composition before, after, or simultaneously with the pathogen inactivating compound. In some embodiments, the quencher is added in the time range of about 30 minutes prior to pathogen inactivating compound up to about 10 minutes following pathogen inactivating compound. In some embodiments, the quencher and pathogen inactivating compound may be added essentially simultaneously but separately. […] Because of the high concentration of glutathione required for adequate quenching, the pathogen inactivating compound precipitates when these are in the same solution in high concentrations. Once added to the red blood cell composition, they are sufficiently diluted and buffered as to both be completely soluble.",
  "data": [
    {"smiles": "O=C(CCNc1c2ccccc2nc2ccccc12)OCCN(CCCl)CCCl", "note": "[PIC-1]", "values": [
      {"measurement": "solubility when formulated together with neutralized glutathione", "result": "precipitated out of solution"}
    ]}
  ]
}
